Results from US6391564B1, “Methods and compositions utilizing Rad51” (priority 1997, dated 2002).
Read-outs that look alike come from different tables or passages of the source.

Columns and labels:
[1] = system: LNL8 fibroblasts; test: Immunofluorescent staining of Rad51 foci in nuclei and micronuclei of LNL8 fibroblasts; type: cell-based; conditions: human LNL8 fibroblast cultures, non-lethal doses of 5-aza-dC
Excerpt: (§1) Immunofluorescent Staining.
(§2) Digital Imaging Microscopy.

[2] = system: TGR-1 cells
Protocol: To induce DSBs in DNA and recombinational repair, cell cultures were exposed to a ^137CS irradiator at doses of 900 rad and then allowed to recover for various time spans. In another experiment, cells were treated with 10 μM 5-aza-dC for 24 hrs.
Immunofluorescent Staining. Harvested cells were washed and resuspended in PBS. Cell density was adjusted to ˜10^5 cells/ml. 0.5 ml aliquots of this cell suspension were centrifuged onto clean glass slides at 800 rpm for 4 min, using a Shandon Cytospin. Immediately after cytocentrifugation, the preparations were fixed in absolute methanol for 30 min at −20° C. and then rinsed in ice-cold acetone for a few seconds. Following three washes with PBS, the preparations were incubated at 37° C. with rabbit anti-HsRad51 antiserum, diluted 1:100 with PBS, in a humidified incubator for 30 min. For some experiments, the slides were simultaneously labeled with rat anti-HsRad52 antiserum or mouse monoclonal antibody. The slides were then washed in PBS another three times for 10 min each and incubated for 30 min with fluorescein-isothiocyanate (FITC)-conjugated anti-rabbit IaG, appropriately diluted with PBS. Rad52, Gadd45, p53, and RNAPII were detected with rhodamine, conjugated anti-rat IgG or anti-mouse IgG+IgM. After three further washes with PBS, the preparations were counterstained with 1 μg/ml 4,6-diamidino-2-phenylindole (DAPI) in 2×SSC for 5 min. The slides were mounted in 90% glycerol, 0.1 M Tris-HCl, pH 8.0, and 2.3% 1,4-diazobicyclo-2,2,2-octane (DABCO).
(§3) Fluorescence In Situ End Labeling (FISEL). FISEL detects cell death (apoptosis) in situ by quantitating DNA strand breaks in individual nuclei. It uses terminal transferase (TdT) to label the 3′-ends in fragmented genomic DNA with biotinylated nucleotide. 100 μl of reaction mix contain 1 μl (25 Units) TdT (Boehringer Mannheim), 20 μl 5×TdT buffer (supplied with the enyzme), 1 μl 0.5 mM biotin-ll-dUTP, 3 μl 0.5 mM dTTP, and 75 μl ddH2O. Cytological preparations are incubated at 37° C. for 1 hr with this reaction mix. Washing the slides for 3×5 min in PBS is sufficient to terminate the reaction. The incorporated biotin-dUTP is detected with rhodarnine-conjugated avidin.
Digital Imaging Microscopy. Images were taken with a Zeiss epifluorescence microscope equipped with a thermoelectronically cooled charge coupled device (CCD) camera (Photometries CH250), which was controlled by an Apple Macintosh computer. Gray scale source images were captured separately with filter sets for FITC, rhodamine, and DAPI. Gray scale images were pseudocolored and merged using ONCOR Image and ADOBE Photoshop software.

[3] = system: TGR-1 cells; test: Apoptosis by fluorescence in situ end labeling (FISEL) in TGR-1 cells; type: cell-based, rat; conditions: After 36 hrs etoposide in culture medium
Protocol: Treatment with etoposide (Sedivy), a drug that inhibits DNA topoisomerase II, is a classic system for inducing apoptosis in cells (Mizumoto, et al., (1994). Mol. Pharmac. 46, 890-895).
as §3

[4] = system: TGR-1 cells; test: Immunofluorescent staining of Rad51 foci in nuclei and micronuclei of TGR-1 cells; type: cell-based, rat; conditions: TGR-1 cultures treated with etoposide, FIG. 5D
Excerpt: as §1, §2

[5] = 24 hrs 0.1 μg/ml colcemid, 1 day of recovery
[6] = 24 hrs 0.1 μg/ml colcemid, 2 days of recovery
[7] = 24 hrs 0.1 μg/ml colcemid, 3 days of recovery
[8] = 24 hrs 0.1 μg/ml colcemid, no recovery

Nc1ncn([C@H]2C[C@H](O)[C@@H](CO)O2)c(=O)n1 [5-aza-dC, 5-azadeoxycytidine]
cells displaying MN with focally concentrated Rad51 protein [1]: 5-10%

CN[C@H]1CCc2cc(OC)c(OC)c(OC)c2-c2ccc(OC)c(=O)cc21 [Colcemid, colcemid]
colcemid-treated cells arrested at metaphase ([2]; 24 hrs 0.1 μg/ml colcemid): 185 | Percentage of Cells Showing Rad51+/FISEL+ [2, 5]: 1% | Percentage of Cells Showing Rad51+/FISEL− [2, 5]: 31% | Percentage of Cells Showing Rad51−/FISEL+ [2, 5]: 14% | Percentage of Cells Showing Rad51−/FISEL− [2, 5]: 54% | Percentage of Cells Showing Rad51+/FISEL+ [2, 6]: 6% | Percentage of Cells Showing Rad51+/FISEL− [2, 6]: 9% | Percentage of Cells Showing Rad51−/FISEL+ [2, 6]: 40% | Percentage of Cells Showing Rad51−/FISEL− [2, 6]: 45% | Percentage of Cells Showing Rad51+/FISEL+ [2, 7]: 4% | Percentage of Cells Showing Rad51+/FISEL− [2, 7]: 7% | Percentage of Cells Showing Rad51−/FISEL+ [2, 7]: 46% | Percentage of Cells Showing Rad51−/FISEL− [2, 7]: 43% | Percentage of Cells Showing Rad51+/FISEL+ [2, 8]: 0% | Percentage of Cells Showing Rad51+/FISEL− [2, 8]: 6% | Percentage of Cells Showing Rad51−/FISEL+ [2, 8]: 9% | Percentage of Cells Showing Rad51−/FISEL− [2, 8]: 85% | induced MN containing very brightly fluorescing Rad51 foci ([2]; colcemid-treated cells recovered 24 hrs in drug-free medium): over 30%

COc1cc([C@@H]2c3cc4c(cc3[C@@H](O[C@@H]3O[C@@H]5CO[C@@H](C)O[C@H]5[C@H](O)[C@H]3O)[C@H]3COC(=O)[C@H]23)OCO4)cc(OC)c1O [etoposide]
cells showing genome fragmentation (FISEL-positive) [3]: half of the cells showed genome fragmentation | content of induced micronuclei (Rad51 protein, fragmented DNA) [4]: contain Rad51 protein
